Patent publication US9931444B2, “Polymeric composite materials with antimicrobial and biodegradable properties and uses thereof” (FONDAZIONE ISTITUTO ITALIANO DI TECNOLOGIA, priority 2012, dated 2018)

Experiments:
E. Coli = assay: Minimum bactericidal concentration of iodopovidone; format: cell-based
C. albicans = assay: Minimum fungicidal concentration of iodopovidone; format: cell-based

## iodopovidone
E. Coli
  minimum bactericidal concentration: 2000 µM
C. albicans
  minimum fungicidal concentration: 1000 µM
